Measurements taken from patent publication US12129235B2, “TSPO binders” (The University Court of the University of Glasgow, priority 2018, dated 2024).

Molecular target: TSPO (Rattus norvegicus, UniProt P16257)
Test: ^18F-LW223 PET blocking and displacement with PK11195 (1 mg/kg) in rats
Assay type: in vivo
Set-up: from tissue; host or cells: living Sprague-Dawley rats (brain, heart, lungs and other organs)
Details: for reduction of radiotracer binding post-blocking / VT post-blocking: PK11195 1 mg/kg; for displacement from target sites at equilibrium time point: PK11195 1 mg/kg after 60 min; for VT post-blocking: mean±SEM, n=3
Experimental: 13 PET scans were performed with ^18F-LW223 (mean injected radioactivity of 19.55±2.1 MBq). Scans were acquired following i.v. bolus injection of ^18F-LW223 via tail vein or femoral vein shunt (invasive kinetic modelling experiments with β-probe automatic blood sampler) in rats. Test-retest scans were obtained in three rats following i.v. bolus of the radiotracer, with two weeks interval between test and retest imaging sessions. […] These scans were compared to baseline scans where no PK11195 was used. For displacement studies, rats received i.v. administration of ^18F-LW223 and scanned continuously for 120 min. […] A male and female mouse were initially used to derive the dosimetry estimates for ^18F-LW223 over a 4 h dynamic scan, followed by additional mice in a further study (in a study with a mean injected radioactivity of 10.83±5.6 MBq).
All PET data were acquired using a preclinical PET/CT small animal scanner (nanoPET/CT, Mediso, Hungary). A CT scan (semi-circular full trajectory, maximum field of view, 480 projections, 50 kVp, 300 ms and 1:4 binning) was acquired for attenuation correction. Immediately following radiotracer administration, a 120 minutes emission scan was obtained using 3-dimentional 1:5 mode and re-binned as follows: 18×10 s; 2×30 s; 1×60 s; 2×2 min; 10×5 min; 6×10 min. PET images were reconstructed using Mediso's iterative Tera-Tomo 3D reconstruction algorithm and the following settings: 4 iterations, 6 subsets, full detector model, low regularization, spike filter on, voxel size 0.4 mm and 400-600 keV energy window. PET data were corrected for randoms, scatter and attenuation.
Image Processing and Data Analysis Reconstructed scans were imported into PMOD 3.8 software (PMOD Technologies, Switzerland). Volumes of interest (VOIs) were manually drawn around organs of interest. Time-activity curves (TACs) were generated and standardized uptake values (SUVs) calculated as concentration in the VOI divided by injected dose divided by animal weight. Kinetic modelling was performed using compartmental analysis (1-Tissue (1T) and 2-Tissue (2T) models) and graphical analysis (Logan plot and Ichise multivariate analysis) to estimate the volume of distribution (VT) in different tissues (Innis et al.; Logan; and Ichise et al.). Model fitting performance was evaluated using the Akaike information criterion (AIC) and the model selection criterion (MSC), where the preferred model had the lowest AIC and highest MSC. The selected identifiability criterion was the percentage standard error (% SE) of VT estimates. Kinetic modeling was also performed using graphical analysis to estimate the distribution volume ratio (DVR) in tissue regions and organs where the reference region VOI was the blood pool VOI in the left ventricle (Logan et al.).

reduction on the SUV values post-blocking compared with baseline (PK11195 1 mg/kg prior to tracer): 64-81% | reduction of radiotracer binding post-blocking (brain): 12% | displacement from target sites at equilibrium time point (brain): 29% | reduction of radiotracer binding post-blocking (heart): 35% | displacement from target sites at equilibrium time point (heart): 52% | VT post-blocking (heart): 6.19±0.38 | reduction of radiotracer binding post-blocking (lungs): 56% | displacement from target sites at equilibrium time point (lungs): 40% | VT post-blocking (lungs): 2.27±0.07
Structure (SMILES): CC[C@@H](C)N(C)C(=O)c1nc2ccccc2c(-c2ccccc2)c1C[18F] [^18F-LW223, (R)-(N-sec-Butyl)-3-[19-fluoro]-methyl-N-methyl-4-phenylquinoline-2-carboxamide]
